Experimental data published in US6905852B1, “Herbicide-resistant protoporphyrinogen oxidase isolated from Nicotiana tabacum” (Nihon Nohyaku Co., Ltd., priority 1997, dated 2005).

Legend:
[1] = target: T1, protoporphyrinogen oxidase extracted from ETR-245 (Nicotiana tabacum, UniProt O24163, A231V); assay: Protoporphyrinogen oxidase activity of crude enzyme preparation; type: biochemical
T1 construct: from tissue; host or cells: tobacco callus, herbicide-tolerant cell line ETR-245; crude particulate fraction
Protocol: (§1) Using the same procedures described in Nicolaus, B. et al. (1993) in “Target Assay for Modern Herbicide and Related Phytotoxic Compound” Lewis Publishers, pp. 35-41, five volume of extraction buffer (50 mM Tris-HCl (pH 7.5), 0.5 M sucrose, 0.2% BSA, 1 mM EDTA) was added to callus which was cultured in MS solid medium for one month, and homogenized. After filtration with gauze, filtrate was centrifuged with 10,000×g at 4° C. for 5 minutes. Thus obtained precipitate was suspended with 25 ml of ethanol buffer, centrifuged with 150×g at 4° C. for 2 minutes. Thus obtained supernatant was centrifuged with 4,000×g at 4° C. for 15 minutes, and the precipitate was dissolved with 2 ml of 20% glycerol. The protein amount in the obtained crude enzyme preparation was measured with the protein measuring kit (manufactured by Bio-Rad Co., Ltd.).
(§2) The powder of sodium amalgam was prpared as follows. Into a round flask of 500 ml volume, 13 g of mercury and 0.5 g of thin-layer metal sodium were added, and equilibrated with nitrogen gas for 5 minutes, and it was shaked for 5 minutesthen. […] of protoporphyrin IX was dissolved into 10 mM KOH containing 15 ml of 20% ethanol, incubated at 4° C. To 4 ml of the protoporphyrin IX solution, equal amount of reaction mixture (0.1 M MES, 50 mM ascorbic acid) was added, and 16 mg of sodium amalgam freshly prepared was added, and shaken vigorously under nitrogen gas in a dark. The reaction mixture was filtered with a three-layer glass filter in a dark, and diluted 2.5 times with 0.1 M MES (pH4.5), and divided into 1 ml each in a light-shielded test tube and stored at −80° C.
(§3) 3 ml of reaction buffer (100 mM Tris-HCl (pH 7.6), 1 mM EDTA, 5 mM DTT, 0.03% Tween 80) were added to a cell of a fluorescence spectrophotometer, then, the crude enzyme prparation was added at the final concentration of 0.1 mg protein/ml, and it was heated gradually to room temperature. After heating, protoporphyrinogen IX was added at the final concentration of 2 μM, and the gaseous phase was replaced with nitrogen gas, and a reaction was started. Fluorescence was monitored with a spectrophotometer for 30 minutes starting 10 minutes after the start of the reaction, and enzyme activity was measured (Ex:405 nm,Em:631.5 nm).
(§4) Activity of protoporphyrinogen oxidase in crude enzyme preparation which was extracted from a sensitive tobacco and ETR-245 and the extent of inhibition by compound A were compared (Table 4). As a result, activity of the crude enzyme preparation derived from the sensitive strain was 2.39 units, and the activity of the crude enzyme liquid derived from ETR-245 strain was 2.85 units, and there was no large difference between the activities. […] Incidentally, since the reaction mixture became turbidat the concentration of more than 5,000 nM, it was impossible to measure the fluoroescence. From the above results, the resistant mechanism in ETR-245 to the photobleaching herbicide could be thought that the some mutations in the structure of the enzyme occurred, and was not over production of protoporphyrinogen oxidase which was a target enzyme of photobleaching herbicide.

[2] = target: T2, protoporphyrinogen oxidase extracted from the sensitive cell line (Nicotiana tabacum, UniProt O24163, A174P/A191P/T382S); assay: as above; type: biochemical
T2 construct: from tissue; host or cells: tobacco callus, herbicide-sensitive cell line; crude particulate fraction
Protocol: as §1, §2, §3, §4

[3] = test system: non-transformed tobacco plant; assay: Leaf disk method, bleaching; type: cell-based, N. Tabacum var. SR1
Protocol: (§5) From the transformed plant with which the confirmation of introduction of gene was finished, and non-transformed plant used as a control, a leaf almost the same position of the leaf was picked and 9 mm diameter leaf disks were prepared, and floated on a dish in which 0, 125, 250, 1,250, 2,500, 5,000, 12,500 nM of compound A aqueous solution were contained. After incubation at 27° C. for one week under continuous strong light, the bleaching of the leaf disks was observed, and the permissive concentration to compound A was calculated. As a result (Table 7), in case that the tolerant type of protoporphirinogen oxidase cDNA from tobacco was introduced by pBI-NtPX-RC, more than 100 times of tolerance was observed comparing to the control non-transformed plant. However, in case that rsistant type cDNA from Arabidopsis thaliana was introduced by pBI-AtPX-RC, 4 times of resistance was observed comparing to the control, and in case that the wild type cDNA was introduced, high resistance was not observed in each case.

[4] = test system: transformed tobacco plant, Arabidopsis thaliana resistant type (pBI-AtPX-RC); assay: Leaf disk method, bleaching; type: cell-based, N. Tabacum var. SR1
Protocol: (§6) The A. tumefacience having the binary vector which had been stored at −80° C. was cultured with shaking at 27° C. for 24 hours in 523 liquid medium (1% sucrose, 0.8% Bacto-tryptone, 0.4% Bacto-yeast extract, 0.2% K2HPO4, 0.03% MgSO4.7H2O) containing kanamycin. A disk (9 mm diameter) of a tobacco (N. Tabacum var. SR1) leaf which had been surface sterilized was immersed for one minute into the culture of the A. tumefacience, and then the culture liquid attached thereon was removed with a sterilized paper towel. The leaf disk was transferred into MS agar medium containing 0.6% agar in which 2 ppm NAA and 0.2 ppm BA were added, with the reverse side of leaf being made upside, and incubated at 25° C. for 48 hours. The leaf disk was transferred into MS liquid medium containing 500 ppm carbenicillin, 200 ppm claforan, 2 ppm NAA and 0.2 ppm BA and cultured with shaking at 27° C. for 48-72 hours to remove A. tumefacience. The leaf disk was transferred into MS liquid medium containing 0.6% agar, 100 ppm of carbenycillin, 200 ppm of claforan and 150 ppm of kanamycin, 2 ppm NAA and 0.2 ppm BA and incubated at 27° C. for 2-3 weeks and formation of shoot was induced. The shoot was transferred into medium for root development (½ MS, 0.02 ppm IBA, 1.5% sucrose, 0.2% gellan gum) and development of root was introduced. The young plant thus obtained was transferred into culture soil, and was grown in a green house.
as §5

[5] = test system: transformed tobacco plant, Arabidopsis thaliana wild type (pBI-AtPX-HC); assay: Leaf disk method, bleaching; type: cell-based, N. Tabacum var. SR1
Protocol: as §6, §5

T2 sequence (O24163 51-548 A174P/A191P/T382S): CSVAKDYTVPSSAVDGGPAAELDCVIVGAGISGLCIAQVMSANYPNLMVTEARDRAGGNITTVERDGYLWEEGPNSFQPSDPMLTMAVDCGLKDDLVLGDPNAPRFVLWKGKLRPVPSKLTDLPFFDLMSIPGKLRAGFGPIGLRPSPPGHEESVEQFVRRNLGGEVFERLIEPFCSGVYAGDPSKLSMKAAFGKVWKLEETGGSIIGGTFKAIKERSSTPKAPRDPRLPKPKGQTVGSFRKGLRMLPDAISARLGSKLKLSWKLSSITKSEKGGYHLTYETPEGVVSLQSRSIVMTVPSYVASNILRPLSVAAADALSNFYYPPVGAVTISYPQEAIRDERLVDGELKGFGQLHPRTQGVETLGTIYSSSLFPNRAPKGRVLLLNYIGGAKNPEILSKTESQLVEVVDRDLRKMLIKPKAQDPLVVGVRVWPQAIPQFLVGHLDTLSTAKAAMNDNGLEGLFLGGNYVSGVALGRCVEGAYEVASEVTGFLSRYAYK
T1 sequence (O24163 51-548 A231V): as the sequence (O24163 51-548 A174P/A191P/T382S) above, with P124A, P141A, A181V, S332T counted along it

## CCOC(=O)COc1cc(-c2nn(C)c(OC(F)F)c2Cl)c(F)cc1Cl [Compound A, ethyl 2-chloro-5-(4-chloro-5-difluoromethoxy-1-methyl-1H-pyrazol-3-yl)-4-fluorophenoxyacetate]
[1]; ETR-245, 10 nM, 1 unit = 1 nM protoporphyrin IX/min/mg protein
  Enzyme activity(unit): 3.59 unit
[1]; ETR-245, 40 nM
  Enzyme activity(unit): 4.41 unit
[1]; ETR-245, 100 nM
  Enzyme activity(unit): 2.21 unit
[1]; ETR-245, 500 nM
  Enzyme activity(unit): 3.49 unit
[1]; ETR-245, 1,000 nM
  Enzyme activity(unit): 2.85 unit
[1]; ETR-245, 2,400 nM
  Enzyme activity(unit): 2.48 unit
[1]; ETR-245, 5,000 nM
  Enzyme activity(unit): 1.56 unit
[1]; IC50 value (nM), crude enzyme from ETR-245
  IC50: ≥ 5000 nM
[1]; ratio of IC50 values
  resistance at enzyme level (ETR-245 vs sensitive): more than 100 times
[2]
  IC50: 0.048 µM
[2]; Sensitive, 10 nM, 1 unit = 1 nM protoporphyrin IX/min/mg protein
  Enzyme activity(unit): 4.32 unit
[2]; Sensitive, 20 nM
  Enzyme activity(unit): 3.62 unit
[2]; Sensitive, 40 nM
  Enzyme activity(unit): 1.84 unit
[2]; Sensitive, 100 nM
  Enzyme activity(unit): 0.00 unit
[2]; Sensitive, 500 nM
  Enzyme activity(unit): 0.00 unit
[2]; Sensitive, 1,000 nM
  Enzyme activity(unit): 0.00 unit
[2]; Sensitive, 2,400 nM
  Enzyme activity(unit): 0.00 unit
[2]; Sensitive, 5,000 nM
  Enzyme activity(unit): 0.00 unit
[3]; Introduced gene: None (reference)
  Resistance: 1 X
[3]; Introduced gene: None, one week, continuous strong light
  Permission conc. to compound A: 125 nM
[4]; Arabidopsis thaliana resistant type (pBI-AtPX-RC)
  Permission conc. to compound A: 500 nM
[4]; Arabidopsis thaliana resistant type, vs non-transformed
  Resistance: 4 X
[5]; Arabidopsis thaliana Wild type (pBI-AtPX-HC)
  Permission conc. to compound A: 250 nM
[5]; Arabidopsis thaliana Wild type, vs non-transformed
  Resistance: 2 X
